Patent US4795758A, “5-[2-(pyrrolidin-1-yl)ethoxy]-p-cymene derivatives, the process for the preparation of the said derivatives and drugs in which the said derivatives are present” (priority 1987, dated 1989)
Counter-ions that a name gives are not always drawn. Like-named read-outs stand apart in the source and are kept apart here.

How the values were obtained:
[1] = tested on: arterial hypertension induced by norepinephrine; assay: In vivo α-blocking activity in anesthetized rabbits: arterial pressure; conditions: Oryctolagus cuniculus, iv, norepinephrine-induced arterial pressure increase, read-out: ID50 with regard to arterial hypertension
Description: (§1) The "in vivo" α-blocking activity in terms of the urethral and vascular pressures in anesthetized rabbits was investigated by intravenous administration of the products B 1007, B 1024, B 1058, B 1125 and B 1134.
(§2) The intravenous injection of norepinephrine causes a dose-dependent increase in the arterial and urethral pressures in rabbits. α-Blocking substances injected intravenously antagonize these pressure increases as a function of dose. The 50% inhibitory dose (ID50), defined as being the dose of product which causes a 50% […] in the effects of norepinephrine on the arterial and urethral pressures, is calculated.

[2] = tested on: urethral hypertension induced by norepinephrine; assay: In vivo α-blocking activity in anesthetized rabbits: urethral pressure; conditions: Oryctolagus cuniculus, iv, norepinephrine-induced urethral pressure increase, read-out: ID50 with regard to urethral hypertension
Description: as §1, §2

[3] = tested on: neurogenic urethral hypertension (stimulation of the hypogastric nerve); assay: Urethral specificity in anesthetized dogs: neurogenic urethral hypertension; assay type: in vivo; conditions: Canis lupus familiaris, iv, 50% inhibition of effect of hypogastric nerve stimulation on urethral pressure, read-out: Neurogenic urethral hypertension ID50
Description: (§3) The effect of products B 1007, B 1024, B 1125 and B 1134, injected intravenously, on the neurogenic urethral hypertension and the arterial pressure was investigated on anesthetized dogs.
Electrical stimulation of the hypogastric nerve causes an increase in the urethral pressure by releasing norepinephrine from the sympathetic fibers of the nerve.
(§4) α-Blocking substances antagonize these increases in urethral pressure as a function of dose and cause arterial hypotension through a blocking action on the vascular receptors.
(§5) The dose which causes a 50% inhibition of the effects of stimulation of the hypogastric nerve on the urethral pressure (ID50) and the dose which causes a 20% arterial hypotension (ED20) are calculated.

arterial pressure = assay: Urethral specificity in anesthetized dogs: arterial hypotension; assay type: in vivo; conditions: i.v., dose causing 20% arterial hypotension
Description: as §3, §4, §5

[4] = target: T1, isolated ductus deferens of rats (Rattus norvegicus, UniProt P43140); assay: In vitro α-adrenolytic activity on isolated ductus deferens; conditions: negative log of molar concentration requiring doubled norepinephrine concentration, read-out: pA2, α-blocking action towards norepinephrine on isolated ductus deferens (converted)
T1 construct: Norepinephrine causes contractions of the isolated ductus deferens of rats; from tissue; host or cells: isolated ductus deferens of rats
T1 sequence (P43140 1-466): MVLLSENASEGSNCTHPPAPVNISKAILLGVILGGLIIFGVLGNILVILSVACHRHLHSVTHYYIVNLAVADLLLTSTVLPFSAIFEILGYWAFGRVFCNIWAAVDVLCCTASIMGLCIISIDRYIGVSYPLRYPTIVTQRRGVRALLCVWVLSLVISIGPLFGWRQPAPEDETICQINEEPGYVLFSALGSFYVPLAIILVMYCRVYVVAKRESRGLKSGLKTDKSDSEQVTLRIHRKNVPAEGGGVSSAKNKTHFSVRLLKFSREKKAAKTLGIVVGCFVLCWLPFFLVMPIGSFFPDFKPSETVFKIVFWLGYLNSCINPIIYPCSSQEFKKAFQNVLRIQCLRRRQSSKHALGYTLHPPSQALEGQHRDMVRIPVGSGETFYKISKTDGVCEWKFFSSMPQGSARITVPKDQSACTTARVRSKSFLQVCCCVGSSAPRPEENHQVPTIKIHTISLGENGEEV
Description: (§6) 2.1. - In vitro α-adrenolytic activity
(§7) This was studied on the ductus deferens of rats and on the urethra of rabbits.
(§8) Norepinephrine causes contractions of the isolated ductus deferens of rats and the isolated urethra of rabbits. The presence of α-blocking substances in a bath containing the organ antagonizes these contractions; the use of increasing concentrations of α-blocking substances makes it possible to calculate:
the pA2 of the compounds on the ductus deferens of rats, the pA2 being the negative logarithm of that molar concentration of the product in the presence of which the concentration of norepinephrine has to be doubled in order to obtain the same effect as in the absence of the product; and […]

[5] = Toxicity: 50% lethal dose in mice (p.o. and i.v.); conditions: mouse, in vivo
Description: The following 50% lethal doses were obtained after oral administration (p.o.) and intravenous administration (i.v.) of the substances to mice.

[6] = tested on: toxicity of norepinephrine; assay: In vivo adrenolytic activity: protection against norepinephrine-induced death in rats; conditions: Rattus norvegicus, po; for responders at 50 mg/kg / responders at 25 mg/kg: 0.5 h, 30 min before i.v. norepinephrine 0.4 mg/kg; for responders at 50 mg/kg: 50 mg/kg p.o.; for responders at 25 mg/kg: 25 mg/kg p.o.
Procedure: Norepinephrine injected intravenously in high doses causes the death of 100% of the animals within 15 minutes of being injected. The cause of death is pulmonary edema due to the arterial hypertension induced by stimulation of the adrenergic receptors. The oral administration of α-adrenolytic substances before-hand enables the toxicity of norepinephrine to be reduced. The products are administered orally at times varying between 30 minutes and 6 hours before the intravenous injection (i.v.) of norepinephrine (0.4 mg/kg).

[7] = tested on: isolated urethra of rabbits; assay: In vitro α-adrenolytic activity on isolated urethra; conditions: rabbit; negative log of molar concentration halving norepinephrine contraction-inducing activity
Description: as §6, §7, §8
the pD'2 of the compounds on the urethra of rabbits, the pD'2 being the negative logarithm of that molar concentration of the product in the presence of which the contraction-inducing activity of norepinephrine is halved.

[8] = intravenous, read-out: LD50 i.v.

SMILES: Cc1ccc(C(C)C)c(OCCN2CCCC2)c1 [B 1007, 3-[2-(pyrrolidin-1-yl)ethoxy]-p-cymene hydrochloride]
- ED50 [1]: 7.63 mg/kg
- ED50 [2]: 0.34 mg/kg
- ED50 [3]: 0.35 mg/kg
- Arterial hypotension ED20 (arterial pressure): 2 mg/kg
- Kb [4]: 182 nM
- LD50 [5, 8]: 75 mg/kg
- LD50 ([5]; oral, read-out: LD50 p.o.): 330 mg/kg
- responders at 50 mg/kg [6]: 60%
- pD'2, α-blocking action towards norepinephrine on isolated urethra [7]: 6.88

SMILES: CC(=O)Oc1cc(C(C)C)c(OCCN2CCCC2)cc1C [B 1024, 2-acetoxy-5-[2-(pyrrolidin-1-yl)ethoxy]-p-cymene hydrochloride]
- ED50 [1]: 4.14 mg/kg
- ED50 [2]: 0.23 mg/kg
- ED50 [3]: 0.07 mg/kg
- Arterial hypotension ED20 (arterial pressure): 8 mg/kg
- Kb [4]: 105 nM
- LD50 [5, 8]: 18 mg/kg
- LD50 ([5]; oral, read-out: LD50 p.o.): 100 mg/kg
- responders at 25 mg/kg [6]: 70%
- pD'2, α-blocking action towards norepinephrine on isolated urethra [7]: 6.38

SMILES: Cc1cc(OCCN2CCCC2)c(C(C)C)cc1O [B 1058, 2-hydroxy-5-[2-(pyrrolidin-1-yl)ethoxy]-p-cymene hydrochloride]
- ED50 [1]: 1.22 mg/kg
- ED50 [2]: 0.13 mg/kg
- Kb [4]: 66.1 nM
- LD50 [5, 8]: 17 mg/kg
- LD50 ([5]; oral, read-out: LD50 p.o.): 80 mg/kg
- responders at 50 mg/kg [6]: 90%
- pD'2, α-blocking action towards norepinephrine on isolated urethra [7]: 6.69

SMILES: CCC(=O)Oc1cc(C(C)C)c(OCCN2CCCC2)cc1C [B 1125]
- ED50 [1]: 5.95 mg/kg
- ED50 [2]: 0.36 mg/kg
- ED50 [3]: 0.09 mg/kg
- Arterial hypotension ED20 (arterial pressure): 12 mg/kg
- Kb [4]: 72.4 nM
- LD50 ([5]; oral, read-out: LD50 p.o.): ~300 mg/kg
- responders at 25 mg/kg [6]: 60%
- pD'2, α-blocking action towards norepinephrine on isolated urethra [7]: 6.25

SMILES: CCCCCC(=O)Oc1cc(C(C)C)c(OCCN2CCCC2)cc1C [B 1131]
- Kb [4]: 105 nM
- LD50 ([5]; oral, read-out: LD50 p.o.): ~550 mg/kg
- responders at 50 mg/kg [6]: 60%
- pD'2, α-blocking action towards norepinephrine on isolated urethra [7]: 6.12

SMILES: CCCC(=O)Oc1cc(C(C)C)c(OCCN2CCCC2)cc1C [B 1132, 2-butyryloxy-5-[2-(pyrrolidin-1-yl)-ethoxy]-p-cymene hydrochloride]
- Kb [4]: 44.7 nM
- LD50 ([5]; oral, read-out: LD50 p.o.): ~500 mg/kg
- responders at 50 mg/kg [6]: 90%
- pD'2, α-blocking action towards norepinephrine on isolated urethra [7]: 6.0

SMILES: CCCCCCCCCC(=O)Oc1cc(C(C)C)c(OCCN2CCCC2)cc1C [B 1134]
- ED50 [1]: 6.17 mg/kg
- ED50 [2]: 0.48 mg/kg
- ED50 [3]: 0.11 mg/kg
- Arterial hypotension ED20 (arterial pressure): 30 mg/kg
- Kb [4]: 269 nM
- LD50 [5, 8]: 36 mg/kg
- LD50 ([5]; oral, read-out: LD50 p.o.): ~400 mg/kg
- responders at 100 mg/kg ([6]; 100 mg/kg p.o., 4 h before i.v. norepinephrine 0.4 mg/kg): 100%
- pD'2, α-blocking action towards norepinephrine on isolated urethra [7]: 6.23

SMILES: CC(=O)Oc1cc(C(C)C)c(OCCN(C)C)cc1C [Thymoxamine, reference compound]
- ED50 [1]: 2.72 mg/kg
- ED50 [2]: 0.5 mg/kg
- ED50 [3]: 0.09 mg/kg
- Arterial hypotension ED20 (arterial pressure): 0.27 mg/kg
- Kb [4]: 56.2 nM
- LD50 [5, 8]: 72.5 mg/kg
- LD50 ([5]; oral, read-out: LD50 p.o.): 300 mg/kg
- responders at 50 mg/kg [6]: 80%
- pD'2, α-blocking action towards norepinephrine on isolated urethra [7]: 7.03
